The record followed here is US20080318949A1, “Pyrazolopyrimidinone Derivatives, Their Preparation And Their Use” (Topharman Shanghai Co., Ltd, priority 2005, published 2008).

One series has as its system rat corpora cavernosa. In words: Pharmacodynamic test: intracavernous pressure on electric stimulation of the cavernous nerve. Type of series: in vivo. Particulars: anesthetized male SD rats, 5 mg/kg orally, ratio of ICP to MBp. The protocol:
The test was carried out based on the methods reported (International Journal of Impotence Research 2002, 14, 251 and The Journal of Urology 1992, 147, 1124). After fasted for 12 hours, 4 male SD rats were randomized into each group. After anesthetizing the rats with sodium pentobarbital (50 mg/kg, i.p.), the penile skin was incised and the prepuce was degloved to expose completely the corpora cavernosa (CC). A needle linked to an electrophysiology instrument was inserted into the CC on the right side in order to measure the intracavernous pressure (ICP). The right carotid artery was cannulated in a similar manner to the polyethylene tube in order to monitor the mean blood pressure (MBp) continuously. […] Electric stimulation was performed at 2 Hz, for 60 s with a pulse duration of 5 ms and 3V using a stimulator. The compounds were administrated orally (5 mg/kg). The change of the ICP and MBp were monitored continuously before and after the administration. The effect of the compounds on the erection induced by electric stimulation was evaluated by the ratio of ICP to MBp. The parameter (ICP/MBp) was used to estimate the influence of the compounds to the rat corpora cavernosa. […] The statistical significance of the differences between groups was calculated using Duncan's multiple comparison.

In series [1] the target is T1, PDE5 from human platelets (Homo sapiens, UniProt O76074).
T1 construct: from tissue; host or cells: human platelets
In words: PDE5 inhibitory activity test (scintillation proximity assay). Type of series: biochemical.

Another series concerns the target T2, PDE6 from bovine retina (Bos taurus, UniProt P11541+P23439).
T2 construct: the PDE6 was isolated form bovine retinas; from tissue; host or cells: bovine retina
T2 sequence (P11541 2-856 limits assumed): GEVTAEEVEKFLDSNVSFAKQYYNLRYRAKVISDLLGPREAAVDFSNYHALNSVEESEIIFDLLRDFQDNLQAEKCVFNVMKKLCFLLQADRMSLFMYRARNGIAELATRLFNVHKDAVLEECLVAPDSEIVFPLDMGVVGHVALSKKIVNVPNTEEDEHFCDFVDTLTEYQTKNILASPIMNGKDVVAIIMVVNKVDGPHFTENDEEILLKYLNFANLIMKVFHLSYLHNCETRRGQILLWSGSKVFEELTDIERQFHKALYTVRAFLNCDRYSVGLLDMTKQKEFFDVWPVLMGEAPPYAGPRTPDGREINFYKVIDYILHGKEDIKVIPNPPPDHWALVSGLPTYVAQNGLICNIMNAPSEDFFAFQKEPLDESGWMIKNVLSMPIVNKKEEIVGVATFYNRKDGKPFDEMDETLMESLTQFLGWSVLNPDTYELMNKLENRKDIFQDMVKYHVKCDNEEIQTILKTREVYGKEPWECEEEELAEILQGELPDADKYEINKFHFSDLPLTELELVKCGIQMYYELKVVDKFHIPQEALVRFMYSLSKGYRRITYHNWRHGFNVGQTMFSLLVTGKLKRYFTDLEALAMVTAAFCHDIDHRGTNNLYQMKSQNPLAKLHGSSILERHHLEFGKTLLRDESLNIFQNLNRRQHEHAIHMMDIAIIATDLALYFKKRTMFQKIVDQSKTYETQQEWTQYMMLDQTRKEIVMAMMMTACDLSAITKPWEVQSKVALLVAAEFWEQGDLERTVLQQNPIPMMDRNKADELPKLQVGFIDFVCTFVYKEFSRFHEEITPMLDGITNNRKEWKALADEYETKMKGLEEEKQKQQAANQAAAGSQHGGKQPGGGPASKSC
T2 sequence (P23439 2-850 limits assumed): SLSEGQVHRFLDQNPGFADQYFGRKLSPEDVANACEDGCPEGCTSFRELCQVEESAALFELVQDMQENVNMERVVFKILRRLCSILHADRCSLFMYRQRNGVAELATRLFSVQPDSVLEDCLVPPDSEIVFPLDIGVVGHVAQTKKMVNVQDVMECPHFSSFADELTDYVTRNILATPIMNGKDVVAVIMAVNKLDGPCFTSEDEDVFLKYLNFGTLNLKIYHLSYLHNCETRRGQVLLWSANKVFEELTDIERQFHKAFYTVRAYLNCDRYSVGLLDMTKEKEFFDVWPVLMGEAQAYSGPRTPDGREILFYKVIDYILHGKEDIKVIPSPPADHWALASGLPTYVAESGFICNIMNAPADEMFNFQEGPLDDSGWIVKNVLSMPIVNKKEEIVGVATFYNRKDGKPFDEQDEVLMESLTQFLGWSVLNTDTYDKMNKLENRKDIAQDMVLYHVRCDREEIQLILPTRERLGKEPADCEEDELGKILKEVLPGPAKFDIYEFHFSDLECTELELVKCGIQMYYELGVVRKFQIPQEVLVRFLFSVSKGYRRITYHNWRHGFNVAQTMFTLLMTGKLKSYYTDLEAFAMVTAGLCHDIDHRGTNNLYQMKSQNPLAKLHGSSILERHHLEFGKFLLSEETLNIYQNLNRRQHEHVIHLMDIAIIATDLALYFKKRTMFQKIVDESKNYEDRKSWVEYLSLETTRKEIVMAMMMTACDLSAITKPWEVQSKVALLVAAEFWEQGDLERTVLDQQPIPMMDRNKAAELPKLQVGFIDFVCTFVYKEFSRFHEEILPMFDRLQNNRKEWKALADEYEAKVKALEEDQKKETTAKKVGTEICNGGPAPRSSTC
In words: PDE6 inhibitory activity test (scintillation proximity assay). Type of series: biochemical. As to conditions: for IC50: PDE6 from bovine retina; for PDE6 IC50/PDE5 IC50: selectivity of PDE5 versus PDE6. From the text: (§1) The PDE5 and PDE3 were isolated form human platelets, while the PDE6 was isolated form bovine retinas. The enzyme inhibitory activity test conducted immediately after the enzymes had been isolated, using a scintillation proximity assay for the direct detection of AMP/GMP by the TRKQ7100 and TRKQ7090 kit. In summary, the effect of PDE inhibitors was investigated by assaying a fixed amount of enzyme in the presence of varying inhibitor concentrations and low substrate. The final assay volume was made up to 100 μl with 10 μl assay buffer (50 mM Tris/HCl PH 7.5, 8.3 mM MgCl2, 1.7 mM EGTA), and water. Reactions were initiated with enzyme, incubate for 30 minutes at 30° C. and terminated with 50 μl yttrium silicate SPA beads suspension containing zinc sulphate. Shook for 20 minutes and settled for 30 minutes in the dark, then counted on a BECKMAN LS6500 MULTI-PURPOSE SCINTILLATION COUNTER. The IC50 value for the compounds according the present invention was calculated according the counts.
A general note: Scintillation proximity formats need no separation of bound from free tracer.

The next series concerns the target T3, PDE3 (Homo sapiens, UniProt Q14432).
T3 construct: from tissue; host or cells: human platelets
Put plainly: PDE3 inhibitory activity test (scintillation proximity assay). Type of series: biochemical. As to conditions: PDE3 isolated from human platelets.
Excerpt: as §1
PDE3 is a PDE isozyme distributed mainly in heart, so the inhibiting of PDE3 may lead to side effects associated with heart. Accordingly, the inhibitory activities of some example compounds according to the invention against PDE3 were determined.

The test system of the next series is male KM mouse. In words: Acute oral toxicity test. Type of series: in vivo. Particulars: single oral dose of 3 g/kg, 10 or 11 mice per group. How it is done:
In this test male KM mouse weighting 18-22 g were used, and 10 or 11 mouse were assigned randomly to each group. […] The animals were fasted for 12 hours before the administration.

[2] abbreviates: PDE5 in the PDE6 selectivity table.

Broadly, the IC50 is the concentration that inhibits the measured activity by half. A lower IC50 goes with greater potency.

T3 sequence (Q14432 whole entry): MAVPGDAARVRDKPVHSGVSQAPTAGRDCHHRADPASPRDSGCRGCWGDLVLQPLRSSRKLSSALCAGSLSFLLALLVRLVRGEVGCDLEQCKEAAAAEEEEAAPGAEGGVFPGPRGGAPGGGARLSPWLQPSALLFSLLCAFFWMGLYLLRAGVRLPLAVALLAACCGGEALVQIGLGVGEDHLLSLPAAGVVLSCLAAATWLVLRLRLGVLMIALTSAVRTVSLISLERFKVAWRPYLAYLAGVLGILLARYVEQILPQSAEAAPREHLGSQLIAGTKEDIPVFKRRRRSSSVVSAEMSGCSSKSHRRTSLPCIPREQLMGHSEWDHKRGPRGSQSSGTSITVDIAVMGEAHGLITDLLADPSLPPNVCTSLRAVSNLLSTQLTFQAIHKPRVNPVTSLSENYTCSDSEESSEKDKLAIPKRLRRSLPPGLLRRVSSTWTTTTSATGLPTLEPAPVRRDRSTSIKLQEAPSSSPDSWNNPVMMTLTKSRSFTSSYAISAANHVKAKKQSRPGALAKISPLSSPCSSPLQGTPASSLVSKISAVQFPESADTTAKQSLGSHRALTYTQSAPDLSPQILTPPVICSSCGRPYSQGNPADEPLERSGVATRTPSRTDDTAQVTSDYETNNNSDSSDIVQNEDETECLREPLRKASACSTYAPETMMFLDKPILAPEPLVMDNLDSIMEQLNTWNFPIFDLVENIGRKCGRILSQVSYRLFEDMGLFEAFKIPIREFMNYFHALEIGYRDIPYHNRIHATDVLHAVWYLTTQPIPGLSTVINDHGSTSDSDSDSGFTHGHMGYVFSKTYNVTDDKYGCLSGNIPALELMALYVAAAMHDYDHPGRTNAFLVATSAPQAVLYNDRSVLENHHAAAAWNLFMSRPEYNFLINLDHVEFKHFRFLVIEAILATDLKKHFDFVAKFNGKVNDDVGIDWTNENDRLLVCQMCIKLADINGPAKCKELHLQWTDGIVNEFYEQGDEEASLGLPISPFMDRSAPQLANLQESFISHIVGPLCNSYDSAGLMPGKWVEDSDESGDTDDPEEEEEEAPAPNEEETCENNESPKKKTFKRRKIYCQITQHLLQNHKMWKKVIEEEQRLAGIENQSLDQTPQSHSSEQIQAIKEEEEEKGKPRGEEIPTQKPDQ

Take `CCCOc1ccc(S(=O)(=O)N(CCOC(C)=O)CCN2CCOCC2)cc1-c1nc2c(CCC)nn(C)c2c(=O)[nH]1` [Example 96, 1-methyl-5-{2-propoxy-5-[[1-(2-acetoxyethyl)-1-(2-morpholin-1-yl)ethyl]amidosulfonyl]phenyl}-3-n-propyl-1,6-dihydro-7H-pyrazolo[4,3-d]pyrimidin-7-one]: the ICP/BP with rat corpora cavernosa amounted to 81.0 ± 9.5. Moreover, the IC50 in series [1] (PDE5 from human platelets) worked out at 4.24 nM; in series [1] (setting [2]), 4.24 nM; at PDE6 from bovine retina, 244 nM; at PDE3 it was 12400 nM. The “PDE6 IC50/PDE5 IC50” value at PDE6 from bovine retina came to 57.7. Moreover, in the series with male KM mouse, the Number of death is listed as 0. The compound further showed a mortality rate in the series with male KM mouse of 0%.
As to `CCCOc1ccc(S(=O)(=O)N(CCCOC)CCCOC(C)=O)cc1-c1nc2c(CCC)nn(C)c2c(=O)[nH]1` [Example 118, 1-methyl-5-{2-propoxy-5-[[1-(3-methoxypropyl)-1-(3-acetoxypropyl)]amidosulfonyl]phenyl}-3-n-propyl-1,6-dihydro-7H-pyrazolo[4,3-d]pyrimidin-7-one], the ICP/BP with rat corpora cavernosa is 77.9 ± 2.3. The IC50 in series [1] (PDE5 from human platelets) stood at 5.41 nM; in series [1] (setting [2]), 5.41 nM; against PDE6 from bovine retina, 203 nM; against PDE3 it was 20500 nM. In addition, the “PDE6 IC50/PDE5 IC50” value at PDE6 from bovine retina was found to be 37.6. This compound also showed a Number of death in the series on male KM mouse of 0. The compound further had a mortality rate in the series with male KM mouse of 0%.
